Data as given in the NIST ThermoML archive (doi:10.1021/je049685z).

Test: xn = mol fraction of the nth substance listed
Settings: Liquid

Cc1ccccc1 [toluene] + CCCO
mass density [kg/m3]
Settings	100 kPa	5000 kPa	10000 kPa	15000 kPa	20000 kPa	25000 kPa	30000 kPa
303.15 K, x2 = 0	857.4	861.3	865.1	868.7	872.3	875.6	878.9
303.15 K, x2 = 0.2	847.5	851.5	855.3	859	862.5	865.9	869.2
303.15 K, x2 = 0.4	837.2	841.2	845	848.7	852.2	855.7	858.9
303.15 K, x2 = 0.6	825.9	829.9	833.7	837.4	840.9	844.3	847.5
303.15 K, x2 = 0.8	812.4	816.4	820.2	823.8	827.3	830.7	834
313.15 K, x2 = 0	848.1	852.1	856.2	860	863.7	867.2	870.7
313.15 K, x2 = 0.2	838.1	842.2	846.3	850.2	853.9	857.5	860.9
313.15 K, x2 = 0.4	828	832	836.1	840	843.7	847.3	850.7
313.15 K, x2 = 0.6	816.9	821	825	828.9	832.6	836.1	839.5
313.15 K, x2 = 0.8	803.8	807.8	811.9	815.8	819.4	823	826.3
323.15 K, x2 = 0	838.6	842.9	847.2	851.2	855.1	858.9	862.5
323.15 K, x2 = 0.2	828.5	832.9	837.2	841.3	845.2	849	852.6
323.15 K, x2 = 0.4	818.3	822.7	827	831.1	835	838.8	842.4
323.15 K, x2 = 0.6	807.4	811.8	816.1	820.2	824.1	827.9	831.5
323.15 K, x2 = 0.8	794.7	799.1	803.4	807.4	811.3	815	818.6
333.15 K, x2 = 0	829.2	833.7	838.2	842.5	846.6	850.5	854.3
333.15 K, x2 = 0.2	818.7	823.3	827.9	832.3	836.4	840.4	844.2
333.15 K, x2 = 0.4	808.5	813.1	817.8	822.1	826.3	830.3	834.1
333.15 K, x2 = 0.6	797.9	802.5	807.1	811.4	815.6	819.5	823.3
333.15 K, x2 = 0.8	785.6	790.2	794.7	799	803.1	807	810.8
